Where two headings read alike, the source gives them in different places.
Key:
[1] = tested on: carrageenan induced edema in mouse foot pads; assay: Anti-inflammatory screen (carrageenan induced foot edema); assay type: in vivo, mice; conditions: for Anti-inflammatory Screen: 10 mg/kg × 2 intraperitoneally, mice
Procedure: CF1 male mice (about 30 g) were administered test drugs at 10 mg/kg in 0.05% polysorbate .80-water intraperitoneally 3 hr and 30 min prior to 0.05 ml of 2% carrageenan in 0.9% saline injected into the plantar surface of the right hind foot. Saline injected into the left hind foot served as a base line. After 3 hr, both feet were excised at the tibiotarsal (ankle) joint according to the modified (Roszkowski et al., J. Pharm. Exp. Ther., 179, 114 1971) method of Winter, resulting in an 87 mg net increase in the weight of the control animals' feet.

CF1 male mice = assay: Writhing reflex (acetic acid); assay type: in vivo; conditions: for Writhing Reflex: 20 mg/kg intraperitoneally, mice
Procedure: CF1 male mice were administered test drugs at 20 mg/kg intraperitoneally 20 min (see Hendershat et al., J. Pharmacol Exp. Ther. 125, 237 1959) prior to the administration of 0.5 ml of 0.6% acetic acid (Vingar et al., European J. PHarmacol, 37, 23 1976). After 5 min the number of stretches, characterized by repeated contractures of the abdominal musculature accompanied by extension of the hind limbs, was counted for the next 10 min. The control mice had 78 stretch reflexes per 10 min.

Acid phosphatase [2] = assay: Lysosomal free acid phosphatase activity, liver homogenate; assay type: biochemical, rats; conditions: 5 μmoles, in vitro; 20 min
Procedure: (§1) Lysosomal enzymatic assays - Sprague Dawley rats (about 160 g) were sacrificed, the liver excised, and a 10% homogenate (4x) in 0.25 M sucrose and 0.001 M (ethylenedinitrilo) tetra acetic acid, ph 7.2 was prepared.
(§2) Acid phosphatase activity (Gianetto et al., Biochem J., 59, 433 1955) was carried out by incubating with 0.1 Mβ-glycerol phosphate in 0.1 M acetate, pH 5.0 with 5 μmoles of test drugs in 1% carboxymethylcellulose (CMC) for 20 min with liver homogenate and 60 min with resuspended PMNs. Lysosome enzymes were released by 0.02% alkyl phenoxy polyethoxy ethanol-100 to obtain the total enzymatic activity. The reaction was stopped with 10% trichloroacetic acid and the solution centrifuged. Aliquots of the supernatant were assayed for inorganic phophate content by the method of Chen et al., Anal Chem., 28, 1756 (1956). Percent free acid phosphatase was calculated. Cathepsin activity was determined in an analagous manner except the substrate used was 2% azocasein (Schleuning et al., Methods in Enzymology, XLV, 330 1976) in 0.1 M acetate buffer pH 5.0. The supernatant was assayed for acid soluble peptide fragments at 366 nm. Percent free cathepsin activity was calculated.

Cathepsin [3] = assay: Lysosomal free cathepsin activity, liver homogenate; assay type: biochemical, rats; conditions: 5 μmoles; for Liver % Free Cathepsin Activity, pH5: in vitro, 20 min
Procedure: as §1, §2

Acid phosphatase [4] = assay: Lysosomal free acid phosphatase activity, PMNs; assay type: cell-based; conditions: 5 μmoles, in vitro; 60 min
Procedure: (§3) Polymorphonuclear neutrophils (PMNs) were collected from the peritoneal cavity four hr after the injection of 35 ml of 0.5% oyster glycogen in isotonic saline (Orange et al., J. Exp. Med., 127, 767 1968). The PMNs were centrifuged down at 800 g for 20 min, washed, and resuspended in minumen essential medium (MEM) with 10% fetal calf serum pH 7.4.
as §2

Cathepsin [5] = assay: Lysosomal free cathepsin activity, PMNs; assay type: cell-based; conditions: 5 μmoles; for PMNs % Free Cathespin Activity, pH5: in vitro, 60 min
Procedure: as §3, §2

cAMP levels in PMNs = assay: Cyclic-3',5'-adenosine monophosphate levels (cAMP) in PMNs; assay type: cell-based; conditions: 1 h
Procedure: as §3
Isolated PMNs were incubated with test drugs at 5μ moles for 1 hr at 37° C. in MEM at pH 7.4. The reaction was stopped with 6% trichloroacetic acid. The cyclic-3',5'-adenosine monophosphate levels were determined by the radioimmunoassay of Gilman, Proc. Natl. Acad. Sci. (USA), 67, 305 (1970), using 3H(G)-cyclic-3',5'-adenosine monophosphate (39.8 Cu/m mol). Results were calculated in p mole/10^7 PMNs cells.

[6] = target: T1, prostaglandin synthetase from beef seminal vesicle (Bos taurus, UniProt O62664); assay: Prostaglandin synthetase activity; assay type: biochemical; conditions: 10^-6 M; for inhibition at 1 µM: read-out: inhibition of prostaglandin synthesis; for activity at 1 µM: 1 h, read-out: Prostaglandin Synthesis
T1 construct: purchased; host or cells: beef seminal vesicle
T1 sequence (O62664 25-600): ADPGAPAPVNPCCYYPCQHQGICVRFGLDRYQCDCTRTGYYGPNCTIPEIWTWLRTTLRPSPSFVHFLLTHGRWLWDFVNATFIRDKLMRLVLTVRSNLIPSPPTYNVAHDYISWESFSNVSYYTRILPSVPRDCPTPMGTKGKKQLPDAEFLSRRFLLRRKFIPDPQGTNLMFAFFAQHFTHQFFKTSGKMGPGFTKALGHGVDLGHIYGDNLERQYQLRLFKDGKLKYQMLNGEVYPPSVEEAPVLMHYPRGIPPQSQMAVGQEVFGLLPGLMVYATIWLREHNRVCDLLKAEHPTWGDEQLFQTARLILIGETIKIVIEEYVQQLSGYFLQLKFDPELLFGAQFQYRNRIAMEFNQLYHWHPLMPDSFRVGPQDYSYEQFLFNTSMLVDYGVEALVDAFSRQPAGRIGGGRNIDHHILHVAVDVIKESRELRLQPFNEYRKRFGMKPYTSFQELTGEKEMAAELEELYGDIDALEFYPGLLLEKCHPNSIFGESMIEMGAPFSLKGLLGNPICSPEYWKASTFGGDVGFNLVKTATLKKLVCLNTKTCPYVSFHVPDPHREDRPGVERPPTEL
Procedure: After 1 hr at 37° C. the reaction was stopped with 1 N HCl and extracted with ethyl ether and evaporated. […] The plates were dried and developed in iodine vapor and with the use of prostaglandin standards the appropriate areas were scraped and counted for ^3 H content. Indometacin was used as a standard at 10^-4 M concentration. Test drugs were used at 10^-6 M.

liver mitochondria [7] = assay: Oxidative phosphorylation, succinate as substrate; assay type: biochemical, rats; conditions: 5 μmoles; for Oxidative Phosphorylation Succinate State 3: ADP stimulated respiration; for Oxidative Phosphorylation Succinate State 4: basal respiration
Procedure: (§4) Basal and adenosine diphosphate stimulated respiration on 10% liver homogenates was measured using succinate or αketoglutarate as substrate. See Glatt, et al., supra. The reaction vessel contained sucrose 55μ moles, KCl 22μ moles, K2 HPO4 22μ moles, test compounds at 5μ moles in 1% CMC and sodium succinate 90μ moles or αketoglutarate 60μ moles in a total volume of 1.8 ml. […] The rate of respiration was calculated at μl of O2 consumed/hr/mg wet weight of liver.

liver mitochondria [8] = assay: Oxidative phosphorylation, α-ketoglutarate as substrate; assay type: biochemical, rats; conditions: 5 μmoles; for Oxidative Phosphorylation α Ketoglutarate State 3: ADP stimulated respiration; for Oxidative Phosphorylation α Ketoglutarate State 4: basal respiration
Procedure: as §4

in vivo = conditions: mouse
[9] = pH 7.4, read-out: PMNs cAMP Level

Structure (SMILES) | Anti-inflammatory Screen [1] [% Control] | Writhing Reflex (CF1 male mice) [% Control] | Liver % Free Acid Phosphatase Activity, pH5 (Acid phosphatase [2]) [% Control] | Liver % Free Cathepsin Activity, pH5 (Cathepsin [3]) [% Control] | PMNs % Free Acid Phosphatase Activity, pH5 (Acid phosphatase [4]) [% Control] | PMNs % Free Cathespin Activity, pH5 (Cathepsin [5]) [% Control] | inhibition at 1 µM [6] [%] | activity at 1 µM [6] [%] | Oxidative Phosphorylation Succinate State 3 (liver mitochondria [7]) [% Control] | Oxidative Phosphorylation Succinate State 4 (liver mitochondria [7]) [% Control] | Oxidative Phosphorylation α Ketoglutarate State 3 (liver mitochondria [8]) [% Control] | Oxidative Phosphorylation α Ketoglutarate State 4 (liver mitochondria [8]) [% Control] | LD50 (in vivo) [mg/kg] | activity at 5 µmol (cAMP levels in PMNs; [9]) [%] | also measured
C[N+](C)(C)[BH2-]I [IX, (CH3)3 N.BH 2 I] | 66 | 37 | 71 ± 6 | 14 ± 3 | 71 ± 5 | 40 ± 4 | > 30 | 67 ± 5 | 63 ± 9 | 120 ± 12 | 70 ± 13 | 102 ± 16 | 250 | – | inhibition of free proteolytic cathepsin activity of liver (Cathepsin [3]): at least 75%; activity at 5 µmol (cAMP levels in PMNs; pH 7.4, 5 μmoles, in vitro, read-out: PMNs cAMP Level): 133%; activation at 5 µmol (cAMP levels in PMNs; in vitro incubation, 5 μmoles, read-out: increase of cyclic adenosine monophosphate levels in PMNs): 33%
C[NH+](C)[BH2-]C#N [VI, (CH3)2 NH.BH2 CN] | 49 | 24 | 73 ± 4 | 32 ± 5 | 89 ± 4 | 22 ± 1 | > 30 | 63 ± 4 | 61 ± 5 | 126 ± 19 | 45 ± 12 | 128 ± 25 | 39 | 98 | inhibition of the carrageenan induced edema in mouse foot pads ([1]; text summary of Table II): at least 50%; inhibition of the writhing reflex (CF1 male mice; text summary of Table II): 70%; uncoupling with α-ketoglutarate as substrate (liver mitochondria [8]): uncoupling
C[N+](C)([BH2-]C#N)CC[N+](C)(C)[BH2-]C#N [XI, N,N,N^1,N^1 -Tetramethylethylenediamine-bis(cyanoborane)] | 95 | 76 | 80 ± 6 | 50 ± 7 | 84 ± 5 | 16 ± 5 | – | 85 ± 4 | 122 ± 13 | 116 ± 8 | 106 ± 21 | 168 ± 38 | 200 | 94 | inhibition of PMN cathepsin activity (Cathepsin [5]): at least 82%

Reference: US4368194A, “Pharmacologically active amine boranes” (The United States of America as represented by the …, priority 1981, dated 1983)
